Experimental data from patent publication US20070037820A1, “Substituted piperazines as metabotropic glutamate receptor antagonists” (AstraZeneca AB, priority 2005, published 2007).

Target: T1, human mGluR5d (Homo sapiens, UniProt P41594)
T1 construct: expressed in transfected cells; host or cells: GHEK (Human Embryonic Kidney cells expressing glutamate transporter) for the IP3 assay
Assay: Functional assessment of mGluR5 antagonism in cell lines expressing mGluR5d (FLIPR calcium mobilization / IP3 turnover; which assay gave the values is not stated)
Assay type: cell-based
Conditions: cells expressing human mGluR5d; assay (FLIPR or IP3) not specified
Description: The pharmacological properties of the compounds of the invention can be analyzed using standard assays for functional activity. Examples of glutamate receptor assays are well known in the art as described in for example Aramori et al., Neuron 8:757 (1992), Tanabe et al., Neuron 8:169 (1992), Miller et al., J. Neuroscience 15: 6103 (1995), Balazs, et al., J. Neurochemistry 69:151 (1997). The methodology described in these publications is incorporated herein by reference. Conveniently, the compounds of the invention can be studied by means of an assay that measures the mobilization of intracellular calcium, [Ca^2+]i in cells expressing mGluR5.
Intracellular calcium mobilization was measured by detecting changes in fluorescence of cells loaded with the fluorescent indicator fluo-3. Fluorescent signals were measured using the FLIPR system (Molecular Devices). […]
FLIPR experiments were done using a laser setting of 0.800 W and a 0.4 second CCD camera shutter speed. […] After each addition of the compound, the fluorescence signal was sampled 50 times at 1 second intervals followed by 3 samples at 5 second intervals. Responses were measured as the peak height of the response within the sample period. […]
We have validated a secondary functional assay for mGluR5d based on Inositol Phosphate (IP3) turnover. IP3 accumulation is measured as an index of receptor mediated phospholipase C turnover. […]

T1 sequence (P41594 21-942 isoform P41594-3 limits assumed): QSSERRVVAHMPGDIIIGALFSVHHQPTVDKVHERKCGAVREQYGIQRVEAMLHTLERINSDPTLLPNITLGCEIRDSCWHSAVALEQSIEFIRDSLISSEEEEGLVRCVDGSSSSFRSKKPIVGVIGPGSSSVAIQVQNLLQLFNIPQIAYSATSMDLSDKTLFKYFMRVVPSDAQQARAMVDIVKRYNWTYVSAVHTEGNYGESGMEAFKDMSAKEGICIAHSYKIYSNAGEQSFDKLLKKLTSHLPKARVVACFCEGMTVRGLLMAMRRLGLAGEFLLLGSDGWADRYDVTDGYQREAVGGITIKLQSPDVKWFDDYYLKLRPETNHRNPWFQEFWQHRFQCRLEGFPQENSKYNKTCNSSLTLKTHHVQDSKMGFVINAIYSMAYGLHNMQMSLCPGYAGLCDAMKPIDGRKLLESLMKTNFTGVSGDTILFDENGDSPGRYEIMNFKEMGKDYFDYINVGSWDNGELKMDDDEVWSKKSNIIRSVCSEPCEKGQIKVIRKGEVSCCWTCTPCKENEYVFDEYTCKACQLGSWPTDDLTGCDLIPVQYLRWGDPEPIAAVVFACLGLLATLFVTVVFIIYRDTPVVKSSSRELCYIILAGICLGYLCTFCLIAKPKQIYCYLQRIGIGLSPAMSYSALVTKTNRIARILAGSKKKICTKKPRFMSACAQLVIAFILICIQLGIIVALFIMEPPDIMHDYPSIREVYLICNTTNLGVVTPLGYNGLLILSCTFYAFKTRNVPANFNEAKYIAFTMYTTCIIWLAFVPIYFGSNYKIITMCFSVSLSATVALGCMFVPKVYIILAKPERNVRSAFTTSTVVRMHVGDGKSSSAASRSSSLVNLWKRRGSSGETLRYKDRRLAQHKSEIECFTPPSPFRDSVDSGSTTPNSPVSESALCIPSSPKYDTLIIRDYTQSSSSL

IC50 [nM] | Compound
101 | CC(c1noc(-c2cccc(Cl)c2)n1)N1CCN(c2nccnc2C#N)CC1 (centres unmarked) [Example 15.11, 3-(4-{1-[5-(3-chlorophenyl)-1,2,4-oxadiazol-3-yl]ethyl}piperazin-1-yl) pyrazine-2-carbonitrile]
199 | N#Cc1ccc(N2CCN(Cc3cc(-c4cc(Cl)ccc4F)on3)CC2)nc1 [Example 16.1, 6-(4-{[5-(5-chloro-2-fluorophenyl)isoxazol-3-yl]methyl}piperazin-1-yl) nicotinonitrile]
